Earlier results in patent US11964949B2, “Substituted phenyloxazolidinones for antimicrobial therapy” (priority 2015, dated 2024).

System: Mycobacterium tuberculosis, including multidrug-resistant (MDR) and extensively drug resistant (XDR) strains
Conditions: M. tuberculosis incl. MDR and XDR strains; cited from earlier work

For `CC(=O)NC[C@H]1CN(c2ccc(N3CCOCC3)c(F)c2)C(=O)O1` [Linezolid], the “minimum inhibitory concentration (MIC)” value is listed as “less than 1 ag/ml”.
